PubChem BioAssay AID743267 (Broad Institute, 2014)

Tested on: human bronchial epithelial cells, CFTR corrector, plate reader
Assay: rescue of ΔF508 CFTR function, airway epithelium – human bronchial epithelial cells, plate reader, cherry-pick, two tests, dose response (AID 743267)
Settings: measured here: test 2 replicate run

| Compound | AC50 |
| --- | --- |
| COCCCNc1nnc(Cc2ccc(Cl)cc2)c(=O)[nH]1 | 3.78 µM |
| CCN(CC)C(=O)c1oc2ccc(S(=O)(=O)N3CC(C)CC(C)C3)cc2c1C (stereo not given) | 10.5 µM |
| COCCOC(=O)c1[nH]c2c(c1C)C(=O)CC(c1cccs1)C2 (stereo not given) | 4.16 µM |
| Cc1cc(C(=O)N2CC=C(c3ccccc3)CC2)c2ccccc2n1 | 0.66 µM |
| NC1(C(=O)O)CC1 | > 50 µM |
| CCC1=Nc2cc(C(=O)NCc3cccnc3)ccc2Sc2ccc(C)cc21 | 6.64 µM |
| CCN(C(=O)CSc1nc2ccccc2c(=O)n1-c1ccccc1F)C1CCS(=O)(=O)C1 (stereo not given) | 0.253 µM |
| Fc1ccccc1/C=N/NC(=S)Nc1ccc(Cl)cc1Cl | 1.62 µM |
| CCN(CC)c1ccc(/C=N/NC(=O)c2cnccn2)cc1 | 2.12 µM |
| CC/C=C/CC(=O)N[C@@H](c1ccccc1)[C@@H](O)C(=O)O[C@H]1C[C@@]2(O)[C@@H](OC(=O)c3ccccc3)C3[C@](C)(C(=O)[C@H](OC(C)=O)C(=C1C)C2(C)C)[C@@H](O)C[C@H]1OC[C@@]31OC(C)=O (stereo not given in full) | 3.4 µM |
| OC[C@@H]1CN(Cc2ccc(-c3ccccc3)cc2)C[C@H](n2cnc3c(NC4CC4)ncnc32)O1 | > 50 µM |
| CC(=O)Nc1sc2c(c1-c1nc3ccccc3s1)CN(C(C)C)CC2 | 1.43 µM |
| CCCCNC(=O)C(=O)Nc1ccc2c(c1)N(S(=O)(=O)c1cccs1)CCC2 | 1.89 µM |
| COc1ccc(C2=NOC(C(=O)NCc3ccccc3)C2)cc1 (stereo not given) | 2.42 µM |
| COC1C(C)OC(OC2CC(C)(O)Cc3cc4c(c(O)c32)C(=O)c2c(O)cc3c(c2C4=O)OC2OC3(C)C(O)C(N(C)C)C2O)C(OC)C1(C)OC (stereo not given) | 14.3 µM |
| CN(CCOc1ccc(Cl)cc1)C(=O)c1cccc(S(=O)(=O)N2CCN(c3ccccc3)CC2)c1 | 16 µM |
| O=C(CN(Cc1ccco1)Cc1ccco1)Nc1cc(S(=O)(=O)N2CCCCC2)ccc1Cl | 17.2 µM |
| CCCCn1cnc2c(c(CC#N)nn2-c2ccccc2)c1=N | > 50 µM |
| Cc1cccc(N2CCN(Cc3cn(C)nc3-c3ccccc3F)CC2)n1 | 2.43 µM |
| C/C(=N\Nc1ncnc2sc(C)c(C)c12)c1ccccn1 | 0.589 µM |
| NS(=O)(=O)c1ccc(NC(=O)c2cccc3cc4ccccc4nc23)cc1 | 4.75 µM |
| CC1(C(=O)NCc2cccs2)Cc2c(-c3ccc4c(c3)OCO4)ccnc2O1 (stereo not given) | 2.69 µM |
| CCN(C(=O)CSc1nnc(C)n1-c1ccc(C)cc1)c1c(N)n(Cc2ccccc2)c(=O)[nH]c1=O | > 50 µM |
| COc1ccccc1NS(=O)(=O)c1cc(-c2cnc(C3CC3)o2)ccc1C | 9.51 µM |
| CCCOCCOC(=O)c1[nH]c2c(c1C)C(=O)CC(c1cc(OC)ccc1OC)C2 (stereo not given) | 3.69 µM |

| Compound | AC50 |
| --- | --- |
| Cc1nc(NCc2cccnc2)c2c3c(sc2n1)CCCC3 | 7.38 µM |
| Cc1nc(C)c(C(=O)NN=Cc2ccc(N(CCCl)CCCl)cc2)s1 | > 50 µM |
| COc1ccccc1N1CCN(C(=O)c2ccc(-c3ccc(Cl)cc3)o2)CC1 | 6.64 µM |
| C=CCN=c1scc(C)n1/N=C/c1ccc(O)c(O)c1 | > 50 µM |
| CCN(CC)C1=CC2=CC(=C(C#N)C#N)CCC2CC1 (stereo not given) | 0.948 µM |
| O=C(CCc1ccccc1)NCC(c1ccco1)N1CCc2ccccc21 (stereo not given) | 4.6 µM |
| O=C(N=Nc1c(O)[nH]c2ccc(Br)cc12)c1ccccc1-n1cccc1 | 2.33 µM |
| CC(=O)Nc1ccc(Nc2c3ccccc3nc3ccccc23)cc1 | 4.6 µM |
| CCOC(=O)c1sc(Nc2nc(C)cc(C)n2)nc1C | 11.5 µM |
| CC1=Nc2cc(C(=O)NCC3CCCO3)ccc2Sc2ccc(Br)cc21 (stereo not given) | 9.45 µM |
| CCN(Cc1ccccc1)c1ccc(/C=N/N=C(N)N)cc1 | 4.74 µM |
| O=C1c2cccc3c(O)ccc(c23)C(=O)N1Cc1ccco1 | 13.3 µM |
| C#C[C@]1(O)CC[C@H]2[C@@H]3CCc4cc(OC)ccc4[C@H]3CC[C@@]21C | 2.48 µM |
| CCC1(C)OC(c2ccccc2)=C/C(=C/C=C2C(=O)NC(=O)NC2=O)O1 (stereo not given) | 38.7 µM |
| COc1ccc(NC(=O)C(=O)NCC2CCCN2S(=O)(=O)c2cccs2)cc1 (stereo not given) | 3.63 µM |
| COc1cc([C@@H]2c3cc4c(cc3[C@@H](OC)[C@H]3COC(=O)[C@H]23)OCO4)cc(OC)c1O | 2.52 µM |
| NCC(=O)NNC(=O)OCC1c2ccccc2-c2ccccc21 | 7.38 µM |
| COC(=O)COc1cccc2c(=O)n(CC(=O)NCc3ccccc3)ccc12 | 5.25 µM |
| CCc1ccc(N2CC(C(=O)Nc3ccccc3N3CCCC3)CC2=O)cc1 (stereo not given) | 28.7 µM |
| Fc1ccc(/C=N/NC(=S)Nc2ccc(Cl)cc2Cl)cc1 | 32.2 µM |
| Cc1cccc(OCCNC(=O)c2ccc(Cl)c(S(=O)(=O)NCc3cccnc3)c2)c1 | 1.97 µM |
| CCN(CC)CCCNc1nc2ccccc2c2nc(-c3ccncc3)nn12 | 6.34 µM |
| NC(=S)NN=Cc1nccc2c(N)cccc12 | 3.21 µM |
| COc1ccccc1Nc1nc(-c2sc(NC(=O)C(C)(C)C)nc2C)cs1 | 3.84 µM |
| COc1ccccc1NC(=S)N(Cc1ccco1)Cc1cc2cc(C)cc(C)c2[nH]c1=O | 7 µM |
